Results on 41 molecules are retold here after US20170253607A1, “LONG-ACTING HIV PROTEASE INHIBITOR” (Shionogi & Co., Ltd., priority 2014, published 2017).

This assay concerns the target HIV-1 PR (Human immunodeficiency virus type 1 group M subtype B, UniProt P04585). Nature of the assay: HIV-protease inhibitory activity assay (FRET peptide substrate). In kind it is biochemical. The note with it: Test Example 1. How it is done: Test Example 1: HIV-Protease Inhibitory Activity Assay
The HIV-1 PR assay was performed by using a FRET (Fluorescence Resonance Energy Transfer) peptide substrate (AnaSpec, Inc., Fremont, Calif.). Initially in the intact FRET peptide, the fluorescence of HiLyte Fluor 488 is quenched by QXL 520. Upon substrate cleavage by PR, the fluorescence is recovered and can be monitored. Test compounds diluted in DMSO was plated to the wells of 384-well plate. Then, mixed with assay buffer (0.1 mol/L NaAc containing 0.5 mol/L NaCl, 1 mmol/L EDTA, 1 mmol/L DTT, and 0.05% Tween 20, pH 4.8) in the presence or absence of HIV-1 PR (0.83 ng), and let it stand for 5 minutes at room temperature. Background fluorescence intensity was measured and let it stand for another 15 minutes at room temperature. The enzyme reaction was started by adding substrate diluted in assay buffer at final concentration of 2 μmol/L, and let it stand for 60 minutes at room temperature. After 60 minutes, the fluorescence intensity was measured. Fluorescence intensity was measured with excitation and emission wavelengths of 485 nm and 535 nm, respectively.
IC50 values were determined using non-linear regression four-parameter logistic equation, y=A+((B−A)/(1+((C/x)̂D))) where A=minimum inhibition, B=maximum inhibition, C=log IC50, D=slope factor, x=concentration of compound and y=% inhibition.
The molecule `COc1ccc(S(=O)(=O)N(CC(C)C)CC(O)C(Cc2ccc(OCc3ccccc3-n3nc4c(c3C(=O)O)CC(c3ccccc3)CC4)cc2)NC(=O)OC2COC3(C)OCCC23)cc1` (centres unmarked) [Compound I-144] had a half-maximal inhibitory concentration (IC50) of 0.8 nM.
As for `COc1ccc(S(=O)(=O)N(CC(C)C)CC(O)C(Cc2ccc(OCc3ccc(C(=O)O)c(-c4ccc(F)cc4F)c3)cc2)NC(=O)OC2COC3(C)OCCC23)cc1` (centres unmarked) [Compound I-149], the figure is 1.27 nM; as for `CC(C)CN(CC(O)C(Cc1ccc(OCc2ccc(C(=O)O)cc2-c2ccc(F)cc2F)cc1)NC(=O)OC1COC2(C)OCCC12)S(=O)(=O)c1ccc2ncsc2c1` (centres unmarked) [Compound I-150], 0.93 nM; as for `CC(C)CN(CC(O)C(Cc1ccc(OCc2cc(C(=O)O)ccc2-c2ccc(F)cc2F)cc1)NC(=O)OC1COC2(C)OCCC12)S(=O)(=O)c1ccc2ncsc2c1` (centres unmarked) [Compound I-151], 1.88 nM.
As for `COc1ccc(S(=O)(=O)N(CC(C)C)CC(O)C(Cc2ccc(OCc3ccc(-c4ccc(F)cc4F)c(C(=O)O)c3)cc2)NC(=O)OC2COC3(C)OCCC23)cc1` (centres unmarked) [Compound I-152], the figure is 1.15 nM; as for `COc1ccc(S(=O)(=O)N(CC(C)C)CC(O)C(Cc2ccc(OCc3cccc(-c4ccc(F)cc4F)c3C(=O)O)cc2)NC(=O)OC2COC3(C)OCCC23)cc1` (centres unmarked) [Compound I-153], 1.08 nM; as for `CC(C)CN(CC(O)C(Cc1ccc(OC(C(=O)O)c2ccc(-c3ccc(F)cc3F)cc2)cc1)NC(=O)OC1COC2(C)OCCC12)S(=O)(=O)c1ccc2ncsc2c1` (centres unmarked) [Compound I-154], 1.87 nM.
Under `COc1ccc(S(=O)(=O)N(CC(C)C)CC(O)C(Cc2ccc(Oc3ccc(C(=O)O)c(-c4ccc(F)cc4F)c3)cc2)NC(=O)OC2COC3(C)OCCC23)cc1` (centres unmarked) [Compound I-155] stands 1.37 nM; under `CC(C)CN(CC(O)C(Cc1ccc(OCc2ccc(C(=O)O)c(-c3ccc(F)cc3F)n2)cc1)NC(=O)OC1COC2(C)OCCC12)S(=O)(=O)c1ccc2ncsc2c1` (centres unmarked) [Compound I-156], 1.3 nM.
For the molecule `CC(C)CN(CC(O)C(Cc1ccc(OCc2cnc(C(=O)O)c(-c3ccc(F)cc3F)c2)cc1)NC(=O)OC1COC2(C)OCCC12)S(=O)(=O)c1ccc2ncsc2c1` (centres unmarked) [Compound I-157], the IC50 was 1.22 nM. The IC50 values of the last two molecules are within 1.5-fold of each other.
As for `CC(C)CN(CC(O)C(Cc1ccc(OCc2ccccc2-c2ccccc2C(=O)N(C)C)cc1)NC(=O)OC1COC2(C)OCCC12)S(=O)(=O)c1ccc2ncsc2c1` (centres unmarked) [Compound I-160], the figure is 0.96 nM; as for `CC(C)CN(CC(O)C(Cc1ccc(OCc2ccc(-c3ccccc3)cc2C(=O)N(C)C)cc1)NC(=O)OC1COC2(C)OCCC12)S(=O)(=O)c1ccc2ncsc2c1` (centres unmarked) [Compound I-161], 0.94 nM.
With `CC(C)CN(CC(O)C(Cc1ccc(OCc2ccc3ccccc3c2C(N)=O)cc1)NC(=O)OC1COC2(C)OCCC12)S(=O)(=O)c1ccc2ncsc2c1` (centres unmarked) [Compound I-162], it took 0.96 nM to reach half-maximal inhibition (IC50).
Under `CC(C)CN(CC(O)C(Cc1ccc(OCc2ccc3ccccc3c2C(=O)N(C)C)cc1)NC(=O)OC1COC2(C)OCCC12)S(=O)(=O)c1ccc2ncsc2c1` (centres unmarked) [Compound I-163] stands 1.1 nM.
Take `CC1(C)CCc2sc(-c3ccc(CCCN(CC(O)C(Cc4ccccc4)NC(=O)OC4COC5(C)OCCC45)S(=O)(=O)c4ccc5ncsc5c4)cc3)c(C(=O)O)c2C1` (centres unmarked) [Compound I-164]: half-maximal inhibition (IC50) was put at 2.07 nM. Against the preceding molecule, the IC50 is about 1.9-fold higher.
`CC1(C)CCc2sc(-c3ccc(CN(CC(O)C(Cc4ccccc4)NC(=O)OC4COC5(C)OCCC45)S(=O)(=O)c4ccc5ncsc5c4)cc3)c(C(=O)O)c2C1` (centres unmarked) [Compound I-167] registered an IC50 of 7.1 nM.
As for `COc1ccc(S(=O)(=O)N(CC(C)C)CC(O)C(Cc2ccc(OCCNC(=O)c3cccc(Cl)c3O)cc2)NC(=O)OC2COC3(C)OCCC23)cc1` (centres unmarked) [Compound I-169], the figure is 0.88 nM; as for `COc1ccc(S(=O)(=O)N(CC(C)C)CC(O)C(Cc2ccc(OCCNC(=O)c3cc(Cl)ccc3O)cc2)NC(=O)OC2COC3(C)OCCC23)cc1` (centres unmarked) [Compound I-170], 0.91 nM; as for `COc1ccc(S(=O)(=O)N(CC(C)C)CC(O)C(Cc2ccc(OCCNC(=O)c3cc(C)cc(C)c3O)cc2)NC(=O)OC2COC3(C)OCCC23)cc1` (centres unmarked) [Compound I-171], 0.94 nM.
Under `COc1ccc(S(=O)(=O)N(CC(C)C)CC(O)C(Cc2ccc(OCCNC(=O)c3cc(-c4ccc(F)cc4F)ccc3O)cc2)NC(=O)OC2COC3(C)OCCC23)cc1` (centres unmarked) [Compound I-172] stands 1.02 nM; under `CC(C)CN(CC(O)C(Cc1ccc(OCc2ccccc2-c2ccc3c(c2)C(=O)C(c2ccc(F)cc2)C3=O)cc1)NC(=O)OC1COC2(C)OCCC12)S(=O)(=O)c1ccc2c(c1)OCO2` (centres unmarked) [Compound I-174], 2.08 nM; under `COc1ccc(S(=O)(=O)N(CC(C)C)CC(O)C(Cc2ccc(OCc3ccccc3-c3ccc4c(c3)C(=O)C(c3ccccc3C)C4=O)cc2)NC(=O)OC2COC3(C)OCCC23)cc1` (centres unmarked) [Compound I-176], 1.01 nM.
On to `COc1ccc(S(=O)(=O)N(CC(C)C)CC(O)C(Cc2ccc(OCc3ccccc3-c3ccc4c(C(=O)O)csc4c3)cc2)NC(=O)OC2COC3(C)OCCC23)cc1` (centres unmarked) [Compound I-179], for which the IC50 is 1.1 nM.
As for `COc1ccc(S(=O)(=O)N(CC(C)C)CC(O)C(Cc2ccc(OCc3ccccc3-c3ccc4[nH]c(=O)c(-c5ccc(Oc6ccccc6)cc5)c(O)c4c3)cc2)NC(=O)OC2COC3(C)OCCC23)cc1` (centres unmarked) [Compound I-180], the figure is 2.71 nM; as for `COc1ccc(S(=O)(=O)N(CC(C)C)CC(O)C(Cc2ccc(-c3ccc(-c4sc5c(c4C(=O)O)CC(C)(C)CC5)cc3)cc2)NC(=O)OC2COC3(C)OCCC23)cc1` (centres unmarked) [Compound I-183], 2.39 nM; as for `COc1ccc(S(=O)(=O)N(CC(C)C)CC(O)C(Cc2ccc(OC3CCN(Cc4sc5c(c4C(=O)O)CC(C)(C)CC5)C3)cc2)NC(=O)OC2COC3(C)OCCC23)cc1` (centres unmarked) [Compound I-184], 1.64 nM.
For `COc1ccc(S(=O)(=O)N(CC(C)C)CC(O)C(Cc2ccc(OCc3cnn(-c4ccccc4)c3-c3sc4c(c3C(=O)O)CC(C)(C)CC4)cc2)NC(=O)OC2COC3(C)OCCC23)cc1` (centres unmarked) [Compound I-185], the 50% inhibitory concentration (IC50) was 1.71 nM. The IC50 values of the last two molecules are within 1.5-fold of each other.
As for `COc1ccc(S(=O)(=O)N(CC(C)C)CC(O)C(Cc2ccc(OCc3cccc(OC)c3-c3sc4c(c3C(=O)O)CC(C)(C)CC4)cc2)NC(=O)OC2COC3(C)OCCC23)cc1` (centres unmarked) [Compound I-186], the figure is 2.14 nM; as for `COc1ccc(S(=O)(=O)N(CC(C)C)CC(O)C(Cc2ccc(OCc3nccnc3-c3sc4c(c3C(=O)O)CC(C)(C)CC4)cc2)NC(=O)OC2COC3(C)OCCC23)cc1` (centres unmarked) [Compound I-187], 2.21 nM.
As for `CC1(C)CCc2sc(-c3cccnc3COc3ccc(CC(NC(=O)OC4COC5(C)OCCC45)C(O)CN(CC4CCCC4)S(=O)(=O)c4ccc5c(c4)CCO5)cc3)c(C(=O)O)c2C1` (centres unmarked) [Compound I-189], the figure is 2.53 nM.
Under `COc1ccc(S(=O)(=O)N(CC(C)C)CC(O)C(Cc2ccc(N3CCc4cccc(-c5sc6c(c5C(=O)O)CC(C)(C)CC6)c4C3)cc2)NC(=O)OC2COC3(C)OCCC23)cc1` (centres unmarked) [Compound I-191] stands 2.22 nM; under `COc1ccc(S(=O)(=O)N(CC(C)C)C[C@@H](O)[C@H](Cc2ccc(NC(=O)Nc3sc4c(c3C(=O)O)CC(C)(C)CC4)cc2)NC(=O)O[C@H]2CO[C@@]3(C)OCC[C@@H]23)cc1` [Compound I-192], 2.27 nM; under `COc1ccc(S(=O)(=O)N(CC(C)C)CC(O)C(Cc2ccc(-c3ccccc3-c3sc4c(c3C(=O)O)CC(C)(C)CC4)cc2)NC(=O)OC2COC3(C)OCCC23)cc1` (centres unmarked) [Compound I-193], 3.48 nM.
As to `COc1ccc(S(=O)(=O)N(CC(C)C)CC(O)C(Cc2ccc(OCC3CCCN3Cc3sc4c(c3C(=O)O)CC(C)(C)CC4)cc2)NC(=O)OC2COC3(C)OCCC23)cc1` (centres unmarked) [Compound I-194], the IC50 came to 1.63 nM.
`COc1ccc(S(=O)(=O)N(CC(C)C)CC(O)C(Cc2ccc(OC3CCCN(Cc4sc5c(c4C(=O)O)CC(C)(C)CC5)C3)cc2)NC(=O)OC2COC3(C)OCCC23)cc1` (centres unmarked) [Compound I-198]: the 50% inhibitory concentration (IC50) stood at 1.95 nM.
Under `COc1ccc(S(=O)(=O)N(CC2CCCC2)CC(O)C(Cc2ccc(OCc3nn(C)cc3-c3sc4c(c3C(=O)O)CC(C)(C)CC4)cc2)NC(=O)OC2COC3(C)OCCC23)cc1` (centres unmarked) [Compound I-199] stands 2.35 nM; under `COc1ccc(S(=O)(=O)N(CC(C)C)CC(O)C(Cc2ccc(OC3CCN(c4ccc(C#N)cc4-c4sc5c(c4C(=O)O)CC(C)(C)CC5)C3)cc2)NC(=O)OC2COC3(C)OCCC23)cc1` (centres unmarked) [Compound I-200], 5.08 nM; under `COc1ccc(S(=O)(=O)N(CC(C)C)CC(O)C(Cc2ccc(OC3CCN(c4ccc(C#N)cc4-c4sc5c(c4C(=O)O)CC(C)(C)CC5)CC3)cc2)NC(=O)OC2COC3(C)OCCC23)cc1` (centres unmarked) [Compound I-201], 10.2 nM.
As for `COc1ccc(S(=O)(=O)N(CC(C)C)CC(O)C(Cc2ccc(C3=CCC(c4sc5c(c4C(=O)O)CC(C)(C)CC5)CC3)cc2)NC(=O)OC2COC3(C)OCCC23)cc1` (centres unmarked) [Compound I-202], the figure is 12.1 nM; as for `COc1ccc(S(=O)(=O)N(CC(C)C)CC(O)C(Cc2ccc(OC3CCC(c4sc5c(c4C(=O)O)CC(C)(C)CC5)CC3)cc2)NC(=O)OC2COC3(C)OCCC23)cc1` (centres unmarked) [Compound I-203], 5.02 nM; as for `COc1ccc(S(=O)(=O)N(CC(C)C)CC(O)C(Cc2ccc(OCC3CCN(c4ccccc4-c4sc5c(c4C(=O)O)CC(C)(C)CC5)C3)cc2)NC(=O)OC2COC3(C)OCCC23)cc1` (centres unmarked) [Compound I-204], 2.04 nM.

As a reminder, the IC50 is the point on the concentration scale where inhibition reaches its midpoint. A lower IC50 goes with inhibition by little substance.
